One assay has as its target PI3Kalpha (Homo sapiens, UniProt P42336). Briefly: PI3K Biochemical Assays (PI3K-alpha assay). As to conditions: ATP consumption, luciferase-luciferin; 1 μM ATP, 10 μM PIP2. The essentials:
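Recombinant PI3Kα 3 nM, ATP 1 μM and PIP2 10 μM in Tris pH 7.5 with 10 mM MgCl2, ~2 h at ambient temperature. ATP depletion (held to 40-60%) was read by Kinase-Glo luminescence for IC50. Other isoforms: β 10 nM, δ 4 nM; γ 40 nM, 1 h, 5 mM MgCl2.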

For another assay, the target named is mTORC1 (Homo sapiens, UniProt P42345). Kind of assay: mTOR/GbL/Raptor (mTORC1) ELISA Assay. The format is biochemical. As to conditions: phosphorylation of 4E-BP1; 0.2 nM mTORC1, 10 μM ATP. The essentials: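 Kinase reaction: 0.2 nM mTORC1, 10 μM ATP, 50 nM NHis-4E-BP1 in Hepes pH 7.2 with 10 mM MnCl2, 120 min at ambient temperature. Phospho-4E-BP1 was captured on Ni-chelate plates and detected by anti-phospho-4E-BP1 rabbit IgG, HRP secondary and chemiluminescence.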

From patent publication US20140018347A1, “BENZOXAZEPINES AS INHIBITORS OF mTOR AND METHODS OF THEIR USE AND MANUFACTURE” (Exelixis, Inc., priority 2010, published 2014) come the findings set out here.

SMILES strings stand for the structures. Where only a bound is given, the exact number is not on record here.

The IC50 is the concentration needed to halve the response being measured. Read a low IC50 as greater potency.

Sequence of PI3Kalpha (P42336 whole entry, canonical isoform): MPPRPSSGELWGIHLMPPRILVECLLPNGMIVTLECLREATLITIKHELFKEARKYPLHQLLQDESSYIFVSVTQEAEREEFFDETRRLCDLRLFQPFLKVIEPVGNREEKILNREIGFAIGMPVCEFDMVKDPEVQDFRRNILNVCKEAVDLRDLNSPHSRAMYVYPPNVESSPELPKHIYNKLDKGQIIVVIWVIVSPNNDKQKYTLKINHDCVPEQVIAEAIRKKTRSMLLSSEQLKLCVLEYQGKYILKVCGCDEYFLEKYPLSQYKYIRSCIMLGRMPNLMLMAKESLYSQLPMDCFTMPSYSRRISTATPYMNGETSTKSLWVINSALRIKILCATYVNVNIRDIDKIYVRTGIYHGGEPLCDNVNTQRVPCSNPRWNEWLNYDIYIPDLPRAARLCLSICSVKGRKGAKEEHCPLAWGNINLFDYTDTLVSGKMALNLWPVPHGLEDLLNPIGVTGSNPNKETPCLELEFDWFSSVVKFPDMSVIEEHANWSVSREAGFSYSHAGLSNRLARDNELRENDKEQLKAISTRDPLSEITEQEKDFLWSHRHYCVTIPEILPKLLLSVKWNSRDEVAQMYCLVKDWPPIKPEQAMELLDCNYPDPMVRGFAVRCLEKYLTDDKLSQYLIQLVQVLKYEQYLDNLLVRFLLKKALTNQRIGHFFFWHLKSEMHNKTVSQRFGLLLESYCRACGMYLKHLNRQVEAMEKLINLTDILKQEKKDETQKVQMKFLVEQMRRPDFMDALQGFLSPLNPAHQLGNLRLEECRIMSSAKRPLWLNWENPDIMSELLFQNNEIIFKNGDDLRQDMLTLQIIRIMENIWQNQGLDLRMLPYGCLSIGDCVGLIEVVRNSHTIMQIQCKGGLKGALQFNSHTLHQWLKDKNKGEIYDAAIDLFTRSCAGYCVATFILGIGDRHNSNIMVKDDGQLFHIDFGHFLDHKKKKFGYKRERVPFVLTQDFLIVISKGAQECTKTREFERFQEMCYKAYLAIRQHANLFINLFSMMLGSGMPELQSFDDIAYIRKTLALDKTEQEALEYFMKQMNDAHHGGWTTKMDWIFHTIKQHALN
Sequence of PI3Kalpha (P27986 whole entry partner, canonical isoform): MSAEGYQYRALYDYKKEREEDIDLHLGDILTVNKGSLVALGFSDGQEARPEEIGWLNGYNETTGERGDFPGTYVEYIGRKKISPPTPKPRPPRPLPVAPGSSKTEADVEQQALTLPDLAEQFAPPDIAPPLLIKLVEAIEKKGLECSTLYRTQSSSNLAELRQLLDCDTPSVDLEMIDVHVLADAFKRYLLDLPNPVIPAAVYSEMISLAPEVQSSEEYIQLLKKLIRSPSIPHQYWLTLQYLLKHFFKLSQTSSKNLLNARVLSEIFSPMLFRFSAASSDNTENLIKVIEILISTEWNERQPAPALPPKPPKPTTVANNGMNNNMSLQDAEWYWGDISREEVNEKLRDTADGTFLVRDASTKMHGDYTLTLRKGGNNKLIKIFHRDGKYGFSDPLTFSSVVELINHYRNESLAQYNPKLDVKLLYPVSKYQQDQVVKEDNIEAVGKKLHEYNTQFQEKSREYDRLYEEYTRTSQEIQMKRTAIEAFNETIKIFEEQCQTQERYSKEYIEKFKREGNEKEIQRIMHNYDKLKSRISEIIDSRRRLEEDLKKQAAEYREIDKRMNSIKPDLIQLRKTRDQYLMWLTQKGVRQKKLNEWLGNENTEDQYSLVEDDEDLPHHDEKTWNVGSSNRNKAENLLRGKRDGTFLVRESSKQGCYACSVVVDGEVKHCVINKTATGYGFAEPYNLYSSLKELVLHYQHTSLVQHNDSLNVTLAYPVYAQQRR

`Cc1nc(CN(C)C)nc(N2CCOc3ccc(-c4cnc5sc(N)nc5c4)cc3C2)c1Br` [Compound 64, 6-(4-{5-bromo-2-[(dimethylamino)methyl]-6-methylpyrimidin-4-yl}-2,3,4,5-tetrahydro-1,4-benzoxazepin-7-yl)[1,3]thiazolo[5,4-b]pyridin-2-amine]: the IC50 at PI3Kalpha was not above 100 nM; on mTORC1, 500 to 2500 nM.

Turning to `Cc1nc(CN(C)C)nc(N2CCOc3ccc(-c4cnc5sc(N)nc5c4)cc3C2)c1Cl` [Compound 65, 6-(4-{5-chloro-2-[(dimethylamino)methyl]-6 methylpyrimidin-4-yl}-2,3,4,5-tetrahydro-1,4-benzoxazepin-7-yl)[1,3]thiazolo[5,4-b]pyridin-2-amine], the half-inhibitory concentration (IC50) against PI3Kalpha is not above 100 nM; against mTORC1, 100 to 500 nM.

For `Cc1nc(CN(C)C)nc(N2CCOc3ccc(-c4cnc5sc(N)nc5c4)cc3C2)c1F` [Compound 66, 6-(4-{2-[(dimethylamino)methyl]-5-fluoro-6-methylpyrimidin-4-yl)-1,3,4,5-tetrahydro-1,4-benzoxazepin-7-yl)[1,3]thiazolo[5,4-b]pyridin-2-amine], the figures for the half-inhibitory concentration (IC50) against PI3Kalpha and against mTORC1 were 100 to 500 nM and 500 to 2500 nM, respectively.

`COc1nc(N)nc(N2CCOc3ccc(-c4cnc5sc(N)nc5c4)cc3C2)c1C` [Compound 67]: the values for the concentration for half-maximal inhibition (IC50) at PI3Kalpha and on mTORC1 were not above 100 nM and 100 to 500 nM, respectively.

Regarding `CCCc1c(C)nc(CN(C)C)nc1N1CCOc2ccc(-c3cnc4sc(N)nc4c3)cc2C1` [Compound 69, 6-(4-{2-[(dimethylamino)methyl]-6-methyl-5-propylpyrimidin-4-yl}-1,3,4,5-tetrahydro-1,4-benzoxazepin-7-yl)[1,3]thiazolo[5,4-b]pyridin-2-amine], the IC50 at PI3Kalpha and on mTORC1 was not above 100 nM in each case.

As for `C=CCc1c(C)nc(CN(C)C)nc1N1CCOc2ccc(-c3cnc4sc(N)nc4c3)cc2C1` [Compound 70, 6-(4-{2-[(dimethylamino)methyl]-6-methyl-5-prop-2-en-1-ylpyrimidin-4-yl}-2,3,4,5-tetrahydro-1,4-benzoxazepin-7-yl)[1,3]thiazolo[5,4-b]pyridin-2-amine], the IC50 on PI3Kalpha and on mTORC1 was not above 100 nM each time.

In the case of `C#CCc1c(C)nc(N)nc1N1CCOc2ccc(-c3cnc4sc(N)nc4c3)cc2C1` [Compound 71, 6-[4-(2-amino-6-methyl-5-prop-2-yn-1-ylpyrimidin-4-yl)-2,3,4,5-tetrahydro-1,4-benzoxazepin-7-yl][1,3]thiazolo[5,4-b]pyridin-2-amine], the concentration for half-maximal inhibition (IC50) against PI3Kalpha and against mTORC1 was not above 100 nM in each case.

For `Cc1nc(N)nc(N2CCOc3ccc(-c4cnc5sc(N)nc5c4)cc3C2)c1C#N` [Compound 72, 2-amino-4-[7-(2-amino[1,3]thiazolo[5,4-b]pyridin-6-yl)-2,3-dihydro-1,4-benzoxazepin-4(5H)-yl]-6-methylpyrimidine-5-carbonitrile], the half-maximal inhibitory concentration (IC50) against PI3Kalpha and against mTORC1 was not above 100 nM in each case.

Consider `Cc1c(N)nc(N)nc1N1CCOc2ccc(-c3cnc4sc(N)nc4c3)cc2C1` [Compound 73, 6-[7-(2-amino[1,3]thiazolo[5,4-b]pyridin-6-yl)-2,3-dihydro-1,4-benzoxazepin-4(5H)-yl]-5-methylpyrimidine-2,4-diamine], for which the IC50 against PI3Kalpha is not above 100 nM; against mTORC1, 100 to 500 nM.

On to `C#Cc1c(C)nc(N)nc1N1CCOc2ccc(-c3cnc4sc(N)nc4c3)cc2C1` [Compound 74, 6-[4-(2-amino-5-ethynyl-6-methylpyrimidin-4-yl)-2,3,4,5-tetrahydro-1,4-benzoxazepin-7-yl][1,3]thiazolo[5,4-b]pyridin-2-amine], for which the IC50 against PI3Kalpha and at mTORC1 was not above 100 nM each time.

Regarding `C/C=C/c1c(Cl)nc(N)nc1N1CCOc2ccc(-c3cnc4sc(N)nc4c3)cc2C1` [Compound 75, 6-(4-{2-amino-6-chloro-5-[(1E)-prop-1-en-1-yl]pyrimidin-4-yl}-2,3,4,5-tetrahydro-1,4-benzoxazepin-7-yl)[1,3]thiazolo[5,4-b]pyridin-2-amine], the half-inhibitory concentration (IC50) at PI3Kalpha and at mTORC1 was not above 100 nM in each case.

Regarding `C=CCc1c(Cl)nc(N)nc1N1CCOc2ccc(-c3cnc4sc(N)nc4c3)cc2C1` [Compound 76, 6-[4-(2-amino-6-chloro-5-prop-2-en-1-ylpyrimidin-4-yl)-2,3,4,5-tetrahydro-1,4-benzoxazepin-7-yl][1,3]thiazolo[5,4-b]pyridin-2-amine], the half-inhibitory concentration (IC50) at PI3Kalpha and against mTORC1 was not above 100 nM each time.

Consider `CC#Cc1c(C)nc(N)nc1N1CCOc2ccc(-c3cnc4sc(N)nc4c3)cc2C1` [Compound 77, 6-[4-(2-amino-6-methyl-5-prop-1-yn-1-ylpyrimidin-4-yl)-2,3,4,5-tetrahydro-1,4-benzoxazepin-7-yl][1,3]thiazolo[5,4-b]pyridin-2-amine], for which the IC50 against PI3Kalpha and at mTORC1 was not above 100 nM throughout.

Take `Nc1ncc(C(F)(F)F)c(N2CCOc3ccc(-c4cnc5sc(N)nc5c4)cc3C2)n1` [Compound 78, 6-{4-[2-amino-5-(trifluoromethyl)pyrimidin-4-yl]-2,3,4,5-tetrahydro-1,4-benzoxazepin-7-yl}[1,3]thiazolo[5,4-b]pyridin-2-amine]: the concentration for half-maximal inhibition (IC50) against PI3Kalpha and against mTORC1 was not above 100 nM in each case.

Turning to `N#Cc1cnc(N)nc1N1CCOc2ccc(-c3cnc4sc(N)nc4c3)cc2C1` [Compound 79, 2-amino-4-[7-(2-amino[1,3]thiazolo[5,4-b]pyridin-6-yl)-2,3-dihydro-1,4-benzoxazepin-4(5H)-yl]pyrimidine-5-carbonitrile], the IC50 against PI3Kalpha is not above 100 nM; on mTORC1 it was 100 to 500 nM.

On to `Nc1cc(N2CCOc3ccc(-c4cnc5sc(N)nc5c4)cc3C2)nc(N)n1` [Compound 80, 6-[7-(2-amino[1,3]thiazolo[5,4-b]pyridin-6-yl)-2,3-dihydro-1,4-benzoxazepin-4(5H)-yl]pyrimidine-2,4-diamine], for which the IC50 on PI3Kalpha is not above 100 nM; on mTORC1, 100 to 500 nM.

Consider `Nc1nc2cc(-c3ccc4c(c3)CN(c3ncc(C(F)(F)F)c(N)n3)CCO4)cnc2s1` [Compound 81, 6-{4-[4-amino-5-(trifluoromethyl)pyrimidin-2-yl]-2,3,4,5-tetrahydro-1,4-benzoxazepin-7-yl}[1,3]thiazolo[5,4-b]pyridin-2-amine], for which the half-inhibitory concentration (IC50) at PI3Kalpha and at mTORC1 was 100 to 500 nM throughout.

Take `Cc1nc(CNCCF)nc(N2CCOc3ccc(-c4cnc5sc(N)nc5c4)cc3C2)c1C(C)C` [Compound 82, 6-{4-[2-{[(2-fluoroethyl)amino]methyl}-6-methyl-5-(1-methylethyl)pyrimidin-4-yl]-2,3,4,5-tetrahydro-1,4-benzoxazepin-7-yl}[1,3]thiazolo[5,4-b]pyridin-2-amine]: the 50% inhibitory concentration (IC50) on PI3Kalpha and at mTORC1 was not above 100 nM throughout.

Turning to `C=CCc1c(C)nc(N)nc1N1CCOc2ccc(-c3cnc4sc(N)nc4c3)cc2C1` [Compound 83, 6-[4-(2-amino-6-methyl-5-prop-2-en-1-ylpyrimidin-4-yl)-2,3,4,5-tetrahydro-1,4-benzoxazepin-7-yl][1,3]thiazoloJ-[5,4-b]pyridin-2-amine], the IC50 at PI3Kalpha and against mTORC1 was not above 100 nM throughout.

For `CC1(C)CC(=O)c2sc(N3CCOc4ccc(-c5cnc6sc(N)nc6c5)cc4C3)nc2C1` [Compound 84, 2-[7-(2-amino[1,3]thiazolo[5,4-b]pyridin-6-yl)-2,3-dihydro-1,4-benzoxazepin-4(5H)-yl]-5,5-dimethyl-5,6-dihydro-1,3-benzothiazol-7(4H)-one], the figures for the half-maximal inhibitory concentration (IC50) against PI3Kalpha and against mTORC1 were 500 to 2500 nM and 100 to 500 nM, respectively.

Consider `CC1(C)Cc2nc(N3CCOc4ccc(-c5cnc6sc(N)nc6c5)cc4C3)sc2C(=O)N1` [Compound 85, 2-[7-(2-amino[1,3]thiazolo[5,4-b]pyridin-6-yl)-23-dihydro-1,4-benzoxazepin-4(5H)-yl]-6,6-dimethyl-6,7-dihydro[1,3]thiazolo[5,4-c]pyridin-4(5H)-one], for which the concentration for half-maximal inhibition (IC50) against PI3Kalpha was 100 to 500 nM; against mTORC1, not above 100 nM.

With `Nc1nc2cc(-c3ccc4c(c3)CN(c3ccnc([N+](=O)[O-])c3)CCO4)cnc2s1` [Compound 93, 6-[4-(2-nitropyridin-4-yl)-2,3,4,5-tetrahydro-1,4-benzoxazepin-7-yl][1,3]thiazolo[5,4-b]pyridin-2-amine], the IC50 on PI3Kalpha was 500 to 2500 nM; on mTORC1, 100 to 500 nM.

As for `Nc1cc(N2CCOc3ccc(-c4cnc5sc(N)nc5c4)cc3C2)ccn1` [Compound 94, 6-[4-(2-aminopyridin-4-yl)-2,3,4,5-tetrahydro-1,4-benzoxazepin-7-yl][1,3]thiazolo[5,4-b]pyridin-2-amine], the IC50 against PI3Kalpha and against mTORC1 was 500 to 2500 nM in each case.

Regarding `CC(C)c1cnc(N)nc1N1CCOc2ccc(-c3cnc4sc(N)nc4c3)cc2C1` [Compound 95, 6-{4-[2-amino-5-(1-methylethyl)pyrimidin-4-yl]-2,3,4,5-tetrahydro-1,4-benzoxazepin-7-yl}[1,3]thiazolo[5,4-b]pyridin-2-amine], the IC50 against PI3Kalpha and against mTORC1 was not above 100 nM in each case.

Regarding `COC(C)c1c(Cl)nc(N)nc1N1CCOc2ccc(-c3cnc4sc(N)nc4c3)cc2C1` (stereo not shown) [Compound 96, 6-(4-{2-amino-6-chloro-5-[1-(methyloxy)ethyl]pyrimidin-4-yl)-2,3,4,5-tetrahydro-1,4-benzoxazepin-7-yl)[1,3]thiazolo[5,4-b]pyridin-2-amine], the IC50 against PI3Kalpha and against mTORC1 was not above 100 nM each time.

As to `CC1=CC(C)(C)Cc2c1nc(N)nc2N1CCOc2ccc(-c3cnc4sc(N)nc4c3)cc2C1` [Compound 97, 4-[7-(2-amino[1,3]thiazolo[5,4-b]pyridin-6-yl)-2,3-dihydro-1,4-benzoxazepin-4(5H)-yl]-6,6,8-trimethyl-5,6-dihydroquinazolin-2-amine], the IC50 on PI3Kalpha and against mTORC1 was not above 100 nM in each case.
